# In patent publication US20010007872A1, “METHOD OF TREATING ACUTE, CHRONIC AND/OR NEUROPATHIC PAIN” (priority 1998, published 2001):
# Key:
# [1] = target: T1, NR2B subunit containing NMDA receptor (Rattus norvegicus, UniProt P35439+Q00960); assay: Displacement of specific binding of racemic [3H](+)-(1S, 2S)-1-(4-hydroxy-phenyl)-2-(4-hydroxy-4-phenylpiperidino)-1-propanol ([3H]CP-101,606) from rat forebrain membranes; details: for Ratio [3H]Prazosin/[3H](+)-(1S, 2S)-1-(4-hydroxy-phenyl)-2-(4-hydroxy-4-phenylpiperidino)-1-propanol: selectivity for NR2B NMDA receptor over α1 adrenergic receptor, ratio of the two IC50, greater than three is considered selective
# T1 construct: from rat forebrain membranes; from tissue; host or cells: forebrain membranes of adult male CD rats
# Method: This affinity is assessed in a radioligand binding assay as described below.
# The binding of racemic [^3H] […] Forebrains of adult male CD rats are homogenized in 0.32M sucrose at 4° C. The crude nuclear pellet is removed by centrifugation at 1,000×g for 10 min., and the supernatant centrifuged at 17,000×g for 25 min. The resulting pellet is resuspended in 5 mM Tris acetate pH 7.4 at 4° C. for 10 min. to lyse cellular particles and again centrifuged at 17,000×g. The resulting pellet is washed twice in Tris acetate, resuspended at 10 mg protein/ml and stored at −20° C. until use.
# For binding assays, membranes are thawed, homogenized, and diluted to 0.5 mg protein/ml with 50 mM Tris HCl, pH 7.4. Compounds under study are added at various concentrations followed by racemic [^3H] […] Filters are washed for 10 s with ice cold Tris HCl buffer and the radioactivity trapped on the filter quantified by liquid scintillation spectroscopy. […] Specific binding is defined as total binding minus nonspecific binding.
# (§1) Affinity for the NR2B subunit containing NMDA receptor is measured as the IC50 for displacement of specific binding of racemic [^3H]
# α1-adrengergic receptor = assay: Displacement of specific binding of [3H]prazosin from rat forebrain membranes; details: 0.2 nM [3H]prazosin, IC50 for displacement of specific binding
# Method: as §1
# Forebrains of adult male Sprague Dawley rats are homogenized in 20 volumes of ice cold 50 mM Tris/HCl buffer (pH 7.7). The homogenate is centrifuged at 50,000 X g for 10 min. at 4° C. The pellet is resuspended and centrifuged under identical conditions and the final pellet is resuspended in 80 volumes of 50 mM Tris/HCl (pH 8.0) at 4° C.
# For binding assays, compounds under study are added at various concentrations to 500 μg membrane protein in 1 ml of 50 mM Tris/HCl buffer, followed by [^3H]prazosin (Amersham, specific activity 33 Ci/mmol, 0.2 nM final concentration). Following incubation for 30 min at 25° C. in a shaking water bath, samples are filtered onto Whatman GFB glass fiber filters using a MB48R Cell Harvester (Brandel Research and Development Laboratories, Gaithersburg Md.). Filters are washed three times for 10 s with ice cold Tris HCl buffer and the radioactivity trapped on the filter quantified by liquid scintillation spectroscopy. Nonspecific binding is determined in parallel incubations containing 100 nM prazosin. Specific binding is defined as total binding minus nonspecific binding.
# T1 sequence (Q00960 27-1482, other chains not shown): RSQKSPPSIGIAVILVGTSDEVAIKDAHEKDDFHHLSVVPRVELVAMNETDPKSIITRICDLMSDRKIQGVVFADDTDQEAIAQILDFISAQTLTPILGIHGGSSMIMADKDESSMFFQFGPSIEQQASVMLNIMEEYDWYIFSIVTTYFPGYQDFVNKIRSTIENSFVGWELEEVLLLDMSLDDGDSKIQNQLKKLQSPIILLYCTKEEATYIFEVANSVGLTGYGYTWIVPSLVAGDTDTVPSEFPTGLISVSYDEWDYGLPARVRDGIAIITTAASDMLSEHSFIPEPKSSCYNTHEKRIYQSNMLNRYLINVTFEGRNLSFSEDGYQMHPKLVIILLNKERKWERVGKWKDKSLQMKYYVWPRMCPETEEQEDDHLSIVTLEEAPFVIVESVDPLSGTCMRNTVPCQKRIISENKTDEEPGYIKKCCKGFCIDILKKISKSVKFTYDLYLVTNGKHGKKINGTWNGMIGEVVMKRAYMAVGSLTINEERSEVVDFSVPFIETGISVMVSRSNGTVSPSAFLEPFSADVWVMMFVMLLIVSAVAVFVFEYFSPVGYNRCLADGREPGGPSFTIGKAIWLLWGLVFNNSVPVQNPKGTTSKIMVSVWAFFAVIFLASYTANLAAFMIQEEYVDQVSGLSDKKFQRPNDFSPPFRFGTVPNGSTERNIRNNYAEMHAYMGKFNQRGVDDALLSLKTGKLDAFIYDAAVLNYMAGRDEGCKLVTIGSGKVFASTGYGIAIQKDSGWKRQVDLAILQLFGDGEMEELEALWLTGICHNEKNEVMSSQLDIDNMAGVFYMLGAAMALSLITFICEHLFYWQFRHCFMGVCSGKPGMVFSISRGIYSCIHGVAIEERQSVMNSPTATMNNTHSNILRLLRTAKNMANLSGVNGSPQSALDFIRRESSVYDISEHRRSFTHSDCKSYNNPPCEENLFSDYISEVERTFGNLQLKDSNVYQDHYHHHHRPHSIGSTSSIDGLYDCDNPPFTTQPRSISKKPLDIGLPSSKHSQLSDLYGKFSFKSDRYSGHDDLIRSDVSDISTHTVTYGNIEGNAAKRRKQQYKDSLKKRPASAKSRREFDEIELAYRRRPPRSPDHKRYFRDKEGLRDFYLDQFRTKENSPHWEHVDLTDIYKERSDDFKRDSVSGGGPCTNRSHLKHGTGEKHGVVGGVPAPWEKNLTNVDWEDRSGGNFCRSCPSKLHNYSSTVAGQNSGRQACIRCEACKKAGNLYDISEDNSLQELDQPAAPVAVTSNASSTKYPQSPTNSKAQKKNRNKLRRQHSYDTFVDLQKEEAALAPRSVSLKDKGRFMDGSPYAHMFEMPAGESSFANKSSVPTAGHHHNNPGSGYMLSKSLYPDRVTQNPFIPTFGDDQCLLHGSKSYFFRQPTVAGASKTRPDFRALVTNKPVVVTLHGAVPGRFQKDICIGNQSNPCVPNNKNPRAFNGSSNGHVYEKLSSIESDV
melting point [°C],SMILES,"Ratio [3H]Prazosin/[3H](+)-(1S, 2S)-1-(4-hydroxy-phenyl)-2-(4-hydroxy-4-phenylpiperidino)-1-propanol [1]",IC50 (α1-adrengergic receptor) [nM],IC50 [1] [nM]
,"Cc1cc([C@@H](OS(C)(=O)=O)[C@@H](C)N2CCC(O)(c3ccc(F)cc3)CC2)ccc1O (racemic) [(1R*, 2R*)-1-(4-hydroxy-3-methylphenyl)-2-(4-(4-fluorophenyl)-4-hydroxypiperidin-1-yl)-propan-1-ol-mesylate]",714,10000,
159 to 160,Oc1ccc2c(c1)OCC(N1CCC(O)(c3ccc(F)cc3)CC1)[C@H]2O (stereo in doubt),,,
,"COc1cc([C@H](O)[C@H](C)N2CCC(O)(c3ccccc3)CC2)ccc1O [1S, 2S 1-(4-hydroxy-3-methoxyphenyl)-2-(4-hydroxy-4-phenyl-piperidin-1-yl)-propan-1-ol]",86,8100,94
,"C[C@@H]([C@@H](O)c1ccc(O)cc1)N1CCC(O)(c2ccccc2)CC1 [(1S,2S)-1-(4-hydroxyphenyl)-2-(4-hydroxy-4-phenylpiperidin-1-yl)-1-propanol]",,19500,
,"Oc1ccc2c(c1)OC[C@@H](N1CCC(O)(c3ccc(F)cc3)CC1)[C@H]2O [(3R,4S)-3-[4-(4-fluorophenyl)-4-hydroxy-piperidin-1-yl] -chroman-4,7-diol]",≧555,> 10000,18 ± 3
,"OC(CN1CCC(Cc2ccc(F)cc2)CC1)c1ccc(Cl)cc1 (stereo not shown) [Eliprodil, reference compound]",2.2,980 ± 220,450 ± 130
